From patent US20060211676A1, “Crystalline anhydrous cefdinir and crystalline cefdinir hydrates” (priority 2004, published 2006)

Assay: Dynamic Moisture Sorption/Desorption Gravimetric (DMSG) analysis
Type: physicochemical
Details: relative humidity from 50% to 90%
Method: Dynamic Moisture Sorption/Desorption Gravimetric (DMSG) analysis was performed for the cefdinir lower hydrates. A vacuum moisture balance (MB 300G, VTI Corporation) was used to study the moisture sorption and desoprtion. Samples were dried at 50° C. under vacuum to constant weight. Relative humidity was increased to 90% in 10% increments. If the sample weight remained unchanged (i.e. changed by less than about 3 mg/15 min), the moisture content was recorded. The balance was calibrated before the experiment and the accuracy of the relative humidity measurement was verified with polyvinylpyrrolidone K90. […] Sharp steps, for example with relative humidity changes from 40% to 50%, occur when the crystal undergoes a phase change (i.e. a crystalline structure change). […] Increases in the relative humidity from 10% to almost 40%, results in the formation of crystalline iso-structural hydrates. The cefdinir iso-structural hydrates varied but maintained the same crystalline structure and PXRD patterns (FIG. 6). An increase in the relative humidity from 40% to 50% caused a crystalline structure change, and further increase of relative humidity from 50% to 90% caused cefdinir trihemihydrate (having a water content of about 14%) to form. […] The weight changes are expressed by percentage of water content and by the calculated molar content of water.

- water content: about 14%
Structure (SMILES): C=CC1=C(C(=O)O)N2C(=O)[C@@H](NC(=O)/C(=N\O)c3csc(N)n3)[C@H]2SC1.C=CC1=C(C(=O)O)N2C(=O)[C@@H](NC(=O)/C(=N\O)c3csc(N)n3)[C@H]2SC1.O.O.O.O.O.O.O [cefdinir trihemihydrate, crystalline(6R-(6α,7β(Z)))-7-(((2-amino-1,3-thiazol-4-yl)(hydroxyimino)acetyl)amino)-3-ethenyl-8-oxo-5-thia-1-azabicyclo[4.2.0]oct-2-ene-2-carboxylic acid.3.5H2O]
